Where two headings read alike, the source gives them in different places.
System: patients with advanced TP53 wild-type (WT) leukemias

With `COc1ncc(-c2nc3c(n2C(C)C)[C@H](c2ccc(Cl)cc2)N(c2cc(Cl)cn(C)c2=O)C3=O)c(OC)n1` [HDM201, (S)-5-(5-Chloro-1-methyl-2-oxo-1,2-dihydro-pyridin-3-yl)-6-(4-chloro-phenyl)-2-(2,4-dimethoxy-pyrimidin-5-yl)-1-isopropyl-5,6-dihydro-1H-pyrrolo[3,4-d]imidazol-4-one] the “AE: Iron Overload” value (Regimen 1A N = 16, Grade 3/4) was 0 n (%), the “AE: Leukopenia” value (Regimen 1A N = 16, Grade 3/4) was 2 (12.5) n (%) and the “AE: Lip Oedema” value (Regimen 1A N = 16, Grade 3/4) was 0 n (%). The “AE: Lipase Increased” value (Regimen 1A N = 16, Grade 3/4) was 2 (12.5) n (%), the “AE: Macular Oedema” value (Regimen 1A N = 16, Grade 3/4) was 0 n (%) and the “AE: Malaise” value (Regimen 1A N = 16, Grade 3/4) was 0 n (%). For the same molecule, the “AE: Mouth Haemorrhage” value (Regimen 1A N = 16, Grade 3/4) was 0 n (%), the “AE: Nausea” value (Regimen 1A N = 16, Grade 3/4) was 0 n (%) and the “AE: Neutropenia/Neutrophil Count Decreased” value (Regimen 1A N = 16, Grade 3/4) was 6 (37.5) n (%). For the same molecule, the “AE: Oedema” value (Regimen 1A N = 16, Grade 3/4) was 0 n (%), the “AE: Oral Disorder” value (Regimen 1A N = 16, Grade 3/4) was 0 n (%) and the “AE: Pain In Extremity” value (Regimen 1A N = 16, Grade 3/4) was 0 n (%). The “AE: Pancytopenia” value (Regimen 1A N = 16, Grade 3/4) was 0 n (%), the “AE: Pneumonia” value (Regimen 1A N = 16, Grade 3/4) was 0 n (%) and the “AE: Pollakiuria” value (Regimen 1A N = 16, Grade 3/4) was 0 n (%). The “AE: Pyrexia” value (Regimen 1A N = 16, Grade 3/4) was 0 n (%), the “AE: Rash” value (Regimen 1A N = 16, Grade 3/4) was 0 n (%) and the “AE: Rash Erythematous” value (Regimen 1A N = 16, Grade 3/4) was 0 n (%). For the same molecule, the “AE: Rash Papular” value (Regimen 1A N = 16, Grade 3/4) was 0 n (%), the “AE: Rectal Haemorrhage” value (Regimen 1A N = 16, Grade 3/4) was 0 n (%) and the “AE: Renal Failure” value (Regimen 1A N = 16, Grade 3/4) was 0 n (%). For the same molecule, the “AE: Skin Exfoliation” value (Regimen 1A N = 16, Grade 3/4) was 0 n (%), the “AE: Stomatitis” value (Regimen 1A N = 16, Grade 3/4) was 1 (6.3) n (%) and the “AE: Subarachnoid Haemorrhage” value (Regimen 1A N = 16, Grade 3/4) was 1 (6.3) n (%). The “AE: Thrombocytopenia/Platelet Count Decreased” value (Regimen 1A N = 16, Grade 3/4) was 8 (50.0) n (%), the “AE: Total” value (Regimen 1A N = 16, Grade 3/4) was 12 (75.0) n (%) and the “AE: Tumour Lysis Syndrome” value (Regimen 1A N = 16, Grade 3/4) was 7 (43.8) n (%). The “AE: Vomiting” value (Regimen 1A N = 16, Grade 3/4) was 0 n (%), the “AE: Weight Decreased” value (Regimen 1A N = 16, Grade 3/4) was 0 n (%) and the “AE: White Blood Cell Count Decreased” value (Regimen 1A N = 16, Grade 3/4) was 0 n (%). The “AE: Abdominal Discomfort” value (Regimen 1B N = 6, All Grades) was 0 n (%), the “AE: Abdominal Pain” value (Regimen 1B N = 6, All Grades) was 0 n (%) and the “AE: Abdominal Pain Upper” value (Regimen 1B N = 6, All Grades) was 0 n (%). The “AE: Acute Kidney Injury” value (Regimen 1B N = 6, All Grades) was 1 (16.7) n (%), the “AE: Amylase Increased” value (Regimen 1B N = 6, All Grades) was 0 n (%) and the “AE: Anaemia” value (Regimen 1B N = 6, All Grades) was 2 (33.3) n (%). For the same molecule, the “AE: Arthralgia” value (Regimen 1B N = 6, All Grades) was 0 n (%), the “AE: Asthenia” value (Regimen 1B N = 6, All Grades) was 1 (16.7) n (%) and the “AE: Atrial Fibrillation” value (Regimen 1B N = 6, All Grades) was 0 n (%). The “AE: Atypical Pneumonia” value (Regimen 1B N = 6, All Grades) was 0 n (%), the “AE: Balanitis Candida” value (Regimen 1B N = 6, All Grades) was 0 n (%) and the “AE: Blood Alkaline Phosphatase Increased” value (Regimen 1B N = 6, All Grades) was 0 n (%). The “AE: Blood Bilirubin Increased” value (Regimen 1B N = 6, All Grades) was 1 (16.7) n (%), the “AE: Blood Creatinine Increased” value (Regimen 1B N = 6, All Grades) was 0 n (%) and the “AE: Blood Phosphorus Increased” value (Regimen 1B N = 6, All Grades) was 1 (16.7) n (%). For the same molecule, the “AE: Blood Uric Acid Increased” value (Regimen 1B N = 6, All Grades) was 0 n (%), the “AE: Bone Marrow Failure” value (Regimen 1B N = 6, All Grades) was 0 n (%) and the “AE: C-Reactive Protein Increased” value (Regimen 1B N = 6, All Grades) was 0 n (%). The “AE: Cardiac Failure” value (Regimen 1B N = 6, All Grades) was 0 n (%), the “AE: Cellulitis” value (Regimen 1B N = 6, All Grades) was 1 (16.7) n (%) and the “AE: Chronic Graft Versus Host Disease” value (Regimen 1B N = 6, All Grades) was 0 n (%). For the same molecule, the “AE: Conjunctival Haemorrhage” value (Regimen 1B N = 6, All Grades) was 0 n (%), the “AE: Constipation” value (Regimen 1B N = 6, All Grades) was 1 (16.7) n (%) and the “AE: Cough” value (Regimen 1B N = 6, All Grades) was 0 n (%). The “AE: Cystitis Viral” value (Regimen 1B N = 6, All Grades) was 0 n (%), the “AE: Cytomegalovirus Infection” value (Regimen 1B N = 6, All Grades) was 0 n (%) and the “AE: Decreased Appetite” value (Regimen 1B N = 6, All Grades) was 1 (16.7) n (%). For the same molecule, the “AE: Diarrhoea” value (Regimen 1B N = 6, All Grades) was 0 n (%), the “AE: Dyspepsia” value (Regimen 1B N = 6, All Grades) was 0 n (%) and the “AE: Dyspnoea” value (Regimen 1B N = 6, All Grades) was 0 n (%). For the same molecule, the “AE: Epistaxis” value (Regimen 1B N = 6, All Grades) was 0 n (%), the “AE: Fatigue” value (Regimen 1B N = 6, All Grades) was 0 n (%) and the “AE: Febrile Neutropenia” value (Regimen 1B N = 6, All Grades) was 2 (33.3) n (%). For the same molecule, the “AE: Gamma-Glutamyltransferase Increased” value (Regimen 1B N = 6, All Grades) was 0 n (%), the “AE: General Physical Health Deterioration” value (Regimen 1B N = 6, All Grades) was 0 n (%) and the “AE: Gingival Bleeding” value (Regimen 1B N = 6, All Grades) was 0 n (%). The “AE: Graft Versus Host Disease” value (Regimen 1B N = 6, All Grades) was 0 n (%), the “AE: Haemoglobin Decreased” value (Regimen 1B N = 6, All Grades) was 0 n (%) and the “AE: Headache” value (Regimen 1B N = 6, All Grades) was 1 (16.7) n (%). The “AE: Hyperbilirubinaemia” value (Regimen 1B N = 6, All Grades) was 1 (16.7) n (%), the “AE: Hyperglycaemia” value (Regimen 1B N = 6, All Grades) was 0 n (%) and the “AE: Hyperkalaemia” value (Regimen 1B N = 6, All Grades) was 1 (16.7) n (%). For the same molecule, the “AE: Hyperphosphataemia” value (Regimen 1B N = 6, All Grades) was 1 (16.7) n (%), the “AE: Hyperuricaemia” value (Regimen 1B N = 6, All Grades) was 2 (33.3) n (%) and the “AE: Hypoalbuminaemia” value (Regimen 1B N = 6, All Grades) was 0 n (%). For the same molecule, the “AE: Hypocalcaemia” value (Regimen 1B N = 6, All Grades) was 0 n (%), the “AE: Hypokalaemia” value (Regimen 1B N = 6, All Grades) was 1 (16.7) n (%) and the “AE: Hypomagnesaemia” value (Regimen 1B N = 6, All Grades) was 0 n (%). For the same molecule, the “AE: Hyponatraemia” value (Regimen 1B N = 6, All Grades) was 1 (16.7) n (%), the “AE: Hypophosphataemia” value (Regimen 1B N = 6, All Grades) was 0 n (%) and the “AE: Hypotension” value (Regimen 1B N = 6, All Grades) was 0 n (%). The “AE: Infection” value (Regimen 1B N = 6, All Grades) was 0 n (%), the “AE: Infective Glossitis” value (Regimen 1B N = 6, All Grades) was 0 n (%) and the “AE: Iron Overload” value (Regimen 1B N = 6, All Grades) was 0 n (%). For the same molecule, the “AE: Leukopenia” value (Regimen 1B N = 6, All Grades) was 0 n (%), the “AE: Lip Oedema” value (Regimen 1B N = 6, All Grades) was 0 n (%) and the “AE: Lipase Increased” value (Regimen 1B N = 6, All Grades) was 0 n (%). For the same molecule, the “AE: Macular Oedema” value (Regimen 1B N = 6, All Grades) was 1 (16.7) n (%), the “AE: Malaise” value (Regimen 1B N = 6, All Grades) was 0 n (%) and the “AE: Mouth Haemorrhage” value (Regimen 1B N = 6, All Grades) was 0 n (%). For the same molecule, the “AE: Nausea” value (Regimen 1B N = 6, All Grades) was 4 (66.7) n (%), the “AE: Neutropenia/Neutrophil Count Decreased” value (Regimen 1B N = 6, All Grades) was 1 (16.7) n (%) and the “AE: Oedema” value (Regimen 1B N = 6, All Grades) was 0 n (%). The “AE: Oedema Peripheral” value (Regimen 1B N = 6, All Grades) was 1 (16.7) n (%), the “AE: Oral Disorder” value (Regimen 1B N = 6, All Grades) was 0 n (%) and the “AE: Pain In Extremity” value (Regimen 1B N = 6, All Grades) was 0 n (%). For the same molecule, the “AE: Pancytopenia” value (Regimen 1B N = 6, All Grades) was 1 (16.7) n (%), the “AE: Pneumonia” value (Regimen 1B N = 6, All Grades) was 0 n (%) and the “AE: Pollakiuria” value (Regimen 1B N = 6, All Grades) was 0 n (%). The “AE: Pyrexia” value (Regimen 1B N = 6, All Grades) was 0 n (%), the “AE: Rash” value (Regimen 1B N = 6, All Grades) was 0 n (%) and the “AE: Rash Erythematous” value (Regimen 1B N = 6, All Grades) was 0 n (%). The “AE: Rash Papular” value (Regimen 1B N = 6, All Grades) was 0 n (%), the “AE: Rectal Haemorrhage” value (Regimen 1B N = 6, All Grades) was 1 (16.7) n (%) and the “AE: Renal Failure” value (Regimen 1B N = 6, All Grades) was 0 n (%). For the same molecule, the “AE: Skin Exfoliation” value (Regimen 1B N = 6, All Grades) was 0 n (%).
